The subject of assay [1] is locally advanced or metastatic bladder cancer. Particulars: patients who receive cisplatin; Wong & Rosenberg, 2021; cited from earlier work.
Assay [2] concerns BaF3 cells expressing FGFR3 V557L. The experiment in a line: BaF3 cell viability, FGFR3 V557L. The class given is cell-based. The conditions noted are these: 72 hours, FGF1/heparin. From the text: (§1) cDNA expressing FGFR3 mutants (S249C, S248C, Y375C, V555M, V555L, S249C+V555M, or S249C+V555L) were synthesized and cloned into pLVX Lenti-viral vector (Thermo Fisher). Viral particles were generated by lipofectamine transfection of LentiX 293T cells using Lenti-X packaging single shots following manufacturer's protocol (Clontech/Takara) and concentrated using Lenti-X concentrator and titer determined using Lenti-X p24 rapid titer kit (Clontech/Takara). BaF3 cells were transduced with virus at ~0.3 MOI.
(§2) For cell proliferation assays, engineered BaF3/hFGFR3 cells grown in complete medium were washed and plated in IL-3-free culture media±5 μg/ml heparin and 1 nM human FGF1. Cells were plated out at 1×10^5 cells/well into 96-well plates, followed by the addition of 1:3 serially diluted antibodies as indicated in figures. After addition of antibodies, cells were incubated at 37° C. for 72 h followed by the addition of CellTiter-Glo™ (Promega) reagent. The luminescent signal was detected by Envision plate reader (PerkinElmer). Data was analyzed using Prism software (GraphPad). […]

The subject of assay [3] is BaF3 cells expressing the double mutant FGFR3 S249C+V557L. The experiment in a line: BaF3 cell viability, FGFR3 S249C+V557L. Particulars: 72 hours, FGF1/heparin. In kind it is cell-based.
Text: as §1, §2

The test system of assay [4] is BaF3 cells expressing FGFR3 V557M. Put plainly: BaF3 cell viability, FGFR3 V557M. In kind it is cell-based. The conditions noted are these: 72 hours, FGF1/heparin.
Text: as §1, §2

Assay [5] relates to BaF3 cells expressing the double mutant FGFR3 S249C+V557M. Put plainly: BaF3 cell viability, FGFR3 S249C+V557M. The conditions noted are these: 72 hours, FGF1/heparin. The class given is cell-based.
Text: as §1, §2

Take `N.N.[Cl][Pt][Cl]` [cisplatin]: the median overall survival entry in assay [1] was “approximately 14 months”.

Regarding AZD4547 [reference compound], the “growth of BaF3 cells expressing FGFR3 V557L” value in assay [2] is listed as “ineffective”. In addition, in assay [3], the “growth of BaF3 cells expressing FGFR3 S249C+V557L” value is recorded as “ineffective”. The “growth of BaF3 cells expressing FGFR3 V557M” value in assay [4] is “ineffective”. Besides, in assay [5], the “growth of BaF3 cells expressing FGFR3 S249C+V557M” value is recorded as “ineffective”.
